Results taken from PMC10065276, “Enhanced therapeutic window for antimicrobial Pept-ins by investigating their structure-activity relationship” (PLOS ONE, 2023).
Residues, ends and D or L forms follow the SMILES beside them.

System: E. coli BL21
Conditions: BL21, 17 h
How it was run: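 EUCAST broth microdilution in Mueller-Hinton medium; end-exponential culture diluted to 0.005 McF (~1.5x10^6 CFU/mL) before 1:1 mixing with two-fold peptide dilutions (0.75 to 100 μg/mL), triplicates.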

SMILES | BL21 MIC
CC[C@H](C)[C@H](NC(=O)CNC(=O)[C@H](CC(C)C)NC(=O)[C@@H](N)CCCNC(=N)N)C(=O)N[C@@H](C)C(=O)N[C@H](C(=O)N[C@@H](C)C(=O)N[C@@H](CC(C)C)C(=O)N[C@@H](CCCNC(=N)N)C(=O)N[C@@H](CCCNC(=N)N)C(=O)N1CCC[C@H]1C(=O)N[C@@H](CCCNC(=N)N)C(=O)N[C@@H](CC(C)C)C(=O)NCC(=O)N[C@@H](C)C(=O)N[C@@H](C)C(=O)N[C@H](C(=O)N[C@@H](C)C(=O)N[C@@H](CC(C)C)C(=O)N[C@@H](CCCNC(=N)N)C(=O)N[C@@H](CCCNC(=N)N)C(=O)O)C(C)C)C(C)C [Peptide P33-I15A] (H-RLGIAVALRRPRLGAAVALRR-OH) | 12.50 µg/mL
CC[C@H](C)[C@H](NC(=O)CNC(=O)[C@H](CC(C)C)NC(=O)[C@H](CCCNC(=N)N)NC(=O)[C@@H]1CCCN1C(=O)[C@H](CCCNC(=N)N)NC(=O)[C@H](CCCNC(=N)N)NC(=O)[C@H](CC(C)C)NC(=O)[C@H](C)NC(=O)[C@@H](NC(=O)[C@H](C)NC(=O)[C@@H](NC(=O)CNC(=O)[C@H](C)NC(=O)[C@@H](N)CCCNC(=N)N)[C@@H](C)CC)C(C)C)C(=O)N[C@@H](C)C(=O)N[C@H](C(=O)N[C@@H](C)C(=O)N[C@@H](CC(C)C)C(=O)N[C@@H](CCCNC(=N)N)C(=O)N[C@@H](CCCNC(=N)N)C(=O)O)C(C)C [Peptide P33-L2A] (H-RAGIAVALRRPRLGIAVALRR-OH) | 12.50 µg/mL
CC[C@H](C)[C@H](NC(=O)CNC(=O)[C@H](C)NC(=O)[C@H](CCCNC(=N)N)NC(=O)[C@@H]1CCCN1C(=O)[C@H](CCCNC(=N)N)NC(=O)[C@H](CCCNC(=N)N)NC(=O)[C@H](CC(C)C)NC(=O)[C@H](C)NC(=O)[C@@H](NC(=O)[C@H](C)NC(=O)[C@@H](NC(=O)CNC(=O)[C@H](CC(C)C)NC(=O)[C@@H](N)CCCNC(=N)N)[C@@H](C)CC)C(C)C)C(=O)N[C@@H](C)C(=O)N[C@H](C(=O)N[C@@H](C)C(=O)N[C@@H](CC(C)C)C(=O)N[C@@H](CCCNC(=N)N)C(=O)N[C@@H](CCCNC(=N)N)C(=O)O)C(C)C [Peptide P33-L13A] (H-RLGIAVALRRPRAGIAVALRR-OH) | 6.25 µg/mL
CC[C@H](C)[C@H](NC(=O)CNC(=O)[C@H](CC(C)C)NC(=O)[C@H](CCCNC(=N)N)NC(=O)[C@@H]1CCCN1C(=O)[C@H](CCCNC(=N)N)NC(=O)[C@H](CCCNC(=N)N)NC(=O)[C@H](CC(C)C)NC(=O)[C@H](C)NC(=O)[C@@H](NC(=O)[C@H](C)NC(=O)[C@@H](NC(=O)CNC(=O)[C@H](CC(C)C)NC(=O)[C@@H](N)CCCNC(=N)N)[C@@H](C)CC)C(C)C)C(=O)N[C@@H](C)C(=O)N[C@H](C(=O)N[C@@H](C)C(=O)N[C@@H](C)C(=O)N[C@@H](CCCNC(=N)N)C(=O)N[C@@H](CCCNC(=N)N)C(=O)O)C(C)C [Peptide P33-L19A] (H-RLGIAVALRRPRLGIAVAARR-OH) | 6.25 µg/mL
CC[C@H](C)[C@H](NC(=O)CNC(=O)[C@H](CC(C)C)NC(=O)[C@H](CCCNC(=N)N)NC(=O)[C@@H]1CCCN1C(=O)[C@H](CCCNC(=N)N)NC(=O)[C@H](CCCNC(=N)N)NC(=O)[C@H](CC(C)C)NC(=O)[C@H](C)NC(=O)[C@@H](NC(=O)[C@H](C)NC(=O)[C@@H](NC(=O)CNC(=O)[C@H](CC(C)C)NC(=O)[C@H](C)N)[C@@H](C)CC)C(C)C)C(=O)N[C@@H](C)C(=O)N[C@H](C(=O)N[C@@H](C)C(=O)N[C@@H](CC(C)C)C(=O)N[C@@H](CCCNC(=N)N)C(=O)N[C@@H](CCCNC(=N)N)C(=O)O)C(C)C [Peptide P33-R1A] (H-ALGIAVALRRPRLGIAVALRR-OH) | 6.25 µg/mL
CC[C@H](C)[C@H](NC(=O)CNC(=O)[C@H](CC(C)C)NC(=O)[C@@H](N)CCCNC(=N)N)C(=O)N[C@@H](C)C(=O)N[C@H](C(=O)N[C@@H](C)C(=O)N[C@@H](CC(C)C)C(=O)N[C@@H](C)C(=O)N[C@@H](CCCNC(=N)N)C(=O)N1CCC[C@H]1C(=O)N[C@@H](CCCNC(=N)N)C(=O)N[C@@H](CC(C)C)C(=O)NCC(=O)N[C@H](C(=O)N[C@@H](C)C(=O)N[C@H](C(=O)N[C@@H](C)C(=O)N[C@@H](CC(C)C)C(=O)N[C@@H](CCCNC(=N)N)C(=O)N[C@@H](CCCNC(=N)N)C(=O)O)C(C)C)[C@@H](C)CC)C(C)C [Peptide P33-R9A] (H-RLGIAVALARPRLGIAVALRR-OH) | 6.25 µg/mL
CC[C@H](C)[C@H](NC(=O)CNC(=O)[C@H](CC(C)C)NC(=O)[C@@H](N)CCCNC(=N)N)C(=O)N[C@@H](C)C(=O)N[C@@H](C)C(=O)N[C@@H](C)C(=O)N[C@@H](CC(C)C)C(=O)N[C@@H](CCCNC(=N)N)C(=O)N[C@@H](CCCNC(=N)N)C(=O)N1CCC[C@H]1C(=O)N[C@@H](CCCNC(=N)N)C(=O)N[C@@H](CC(C)C)C(=O)NCC(=O)N[C@H](C(=O)N[C@@H](C)C(=O)N[C@H](C(=O)N[C@@H](C)C(=O)N[C@@H](CC(C)C)C(=O)N[C@@H](CCCNC(=N)N)C(=O)N[C@@H](CCCNC(=N)N)C(=O)O)C(C)C)[C@@H](C)CC [Peptide P33-V6A] (H-RLGIAAALRRPRLGIAVALRR-OH) | 6.25 µg/mL
CC[C@H](C)[C@H](NC(=O)CNC(=O)[C@H](CC(C)C)NC(=O)[C@H](CCCNC(=N)N)NC(=O)[C@@H]1CCCN1C(=O)[C@H](CCCNC(=N)N)NC(=O)[C@H](CCCNC(=N)N)NC(=O)[C@H](CC(C)C)NC(=O)[C@H](C)NC(=O)[C@@H](NC(=O)[C@H](C)NC(=O)[C@@H](NC(=O)CNC(=O)[C@H](CC(C)C)NC(=O)[C@@H](N)CCCNC(=N)N)[C@@H](C)CC)C(C)C)C(=O)N[C@@H](C)C(=O)N[C@@H](C)C(=O)N[C@@H](C)C(=O)N[C@@H](CC(C)C)C(=O)N[C@@H](CCCNC(=N)N)C(=O)N[C@@H](CCCNC(=N)N)C(=O)O [Peptide P33-V17A] (H-RLGIAVALRRPRLGIAAALRR-OH) | 6.25 µg/mL
CC[C@H](C)[C@H](NC(=O)CNC(=O)[C@H](CC(C)C)NC(=O)[C@H](CCCNC(=N)N)NC(=O)[C@@H]1CCCN1C(=O)[C@H](CC(C)C)NC(=O)[C@H](C)NC(=O)[C@@H](NC(=O)[C@H](C)NC(=O)[C@@H](NC(=O)CNC(=O)[C@H](CC(C)C)NC(=O)[C@@H](N)CCCNC(=N)N)[C@@H](C)CC)C(C)C)C(=O)N[C@@H](C)C(=O)N[C@H](C(=O)N[C@@H](C)C(=O)N[C@@H](CC(C)C)C(=O)N[C@@H](CCCNC(=N)N)C(=O)O)C(C)C [Peptide P33_3R_1] (H-RLGIAVALPRLGIAVALR-OH) | 12.5 µg/mL
CC[C@H](C)[C@H](NC(=O)CNC(=O)[C@H](CC(C)C)NC(=O)[C@@H]1CCCN1C(=O)[C@H](CCCNC(=N)N)NC(=O)[C@H](CC(C)C)NC(=O)[C@H](C)NC(=O)[C@@H](NC(=O)[C@H](C)NC(=O)[C@@H](NC(=O)CNC(=O)[C@H](CC(C)C)NC(=O)[C@@H](N)CCCNC(=N)N)[C@@H](C)CC)C(C)C)C(=O)N[C@@H](C)C(=O)N[C@H](C(=O)N[C@@H](C)C(=O)N[C@@H](CC(C)C)C(=O)N[C@@H](CCCNC(=N)N)C(=O)O)C(C)C [Peptide P33_3R_2] (H-RLGIAVALRPLGIAVALR-OH) | 25.00 µg/mL
CC[C@H](C)[C@H](NC(=O)CNC(=O)[C@H](CC(C)C)NC(=O)[C@H](C)NC(=O)[C@@H]1CCCN1C(=O)[C@H](CCCNC(=N)N)NC(=O)[C@H](C)NC(=O)[C@H](CC(C)C)NC(=O)[C@H](C)NC(=O)[C@@H](NC(=O)[C@H](C)NC(=O)[C@@H](NC(=O)CNC(=O)[C@H](CC(C)C)NC(=O)[C@@H](N)CCCNC(=N)N)[C@@H](C)CC)C(C)C)C(=O)N[C@@H](C)C(=O)N[C@H](C(=O)N[C@@H](C)C(=O)N[C@@H](CC(C)C)C(=O)N[C@@H](C)C(=O)N[C@@H](CCCNC(=N)N)C(=O)O)C(C)C [Peptide P33_3R_3] (H-RLGIAVALARPALGIAVALAR-OH) | >100 µg/mL
CC[C@H](C)[C@H](NC(=O)CNC(=O)[C@H](CC(C)C)NC(=O)[C@H](C)NC(=O)[C@@H]1CCCN1C(=O)[C@H](C)NC(=O)[C@H](CCCNC(=N)N)NC(=O)[C@H](CC(C)C)NC(=O)[C@H](C)NC(=O)[C@@H](NC(=O)[C@H](C)NC(=O)[C@@H](NC(=O)CNC(=O)[C@H](CC(C)C)NC(=O)[C@@H](N)CCCNC(=N)N)[C@@H](C)CC)C(C)C)C(=O)N[C@@H](C)C(=O)N[C@H](C(=O)N[C@@H](C)C(=O)N[C@@H](CC(C)C)C(=O)N[C@@H](C)C(=O)N[C@@H](CCCNC(=N)N)C(=O)O)C(C)C [Peptide P33_3R_4] (H-RLGIAVALRAPALGIAVALAR-OH) | 50.00 µg/mL
CC[C@H](C)[C@H](NC(=O)CNC(=O)[C@H](CC(C)C)NC(=O)[C@H](CCCNC(=N)N)NC(=O)[C@@H]1CCCN1C(=O)[C@H](CCCNC(=N)N)NC(=O)[C@H](CC(C)C)NC(=O)[C@H](C)NC(=O)[C@@H](NC(=O)[C@H](C)NC(=O)[C@@H](NC(=O)CNC(=O)[C@H](CC(C)C)NC(=O)[C@@H](N)CCCNC(=N)N)[C@@H](C)CC)C(C)C)C(=O)N[C@@H](C)C(=O)N[C@H](C(=O)N[C@@H](C)C(=O)N[C@@H](CC(C)C)C(=O)N[C@@H](CCCNC(=N)N)C(=O)O)C(C)C [Peptide P33_4R_1] (H-RLGIAVALRPRLGIAVALR-OH) | 6.25 µg/mL
CC[C@H](C)[C@H](NC(=O)CNC(=O)[C@H](CC(C)C)NC(=O)[C@H](CCCNC(=N)N)NC(=O)[C@@H]1CCCN1C(=O)[C@H](CCCNC(=N)N)NC(=O)[C@H](CCCNC(=N)N)NC(=O)[C@H](CC(C)C)NC(=O)[C@H](C)NC(=O)[C@@H](NC(=O)[C@H](C)NC(=O)[C@@H](NC(=O)CNC(=O)[C@H](CC(C)C)NC(=O)[C@H](C)N)[C@@H](C)CC)C(C)C)C(=O)N[C@@H](C)C(=O)N[C@H](C(=O)N[C@@H](C)C(=O)N[C@@H](CC(C)C)C(=O)N[C@@H](C)C(=O)N[C@@H](CCCNC(=N)N)C(=O)O)C(C)C [Peptide P33_4R_2] (H-ALGIAVALRRPRLGIAVALAR-OH) | 25.00 µg/mL
CC[C@H](C)[C@H](NC(=O)CNC(=O)[C@H](CC(C)C)NC(=O)[C@H](CCCNC(=N)N)NC(=O)[C@@H]1CCCN1C(=O)[C@H](CCCNC(=N)N)NC(=O)[C@H](C)NC(=O)[C@H](CC(C)C)NC(=O)[C@H](C)NC(=O)[C@@H](NC(=O)[C@H](C)NC(=O)[C@@H](NC(=O)CNC(=O)[C@H](CC(C)C)NC(=O)[C@@H](N)CCCNC(=N)N)[C@@H](C)CC)C(C)C)C(=O)N[C@@H](C)C(=O)N[C@H](C(=O)N[C@@H](C)C(=O)N[C@@H](CC(C)C)C(=O)N[C@@H](C)C(=O)N[C@@H](CCCNC(=N)N)C(=O)O)C(C)C [Peptide P33_4R_3] (H-RLGIAVALARPRLGIAVALAR-OH) | 50.00 µg/mL
